From patent US6365100B1, “Polymethylenepolyamine dipropionamides as environmentally safe inhibitors of the carbon corrosion of iron” (CECA, S.A., priority 1997, dated 2002)

Columns and labels:
[1] = Carbonic corrosion-inhibitory efficiency by polarization resistance in CO2-saturated NACE-type solution; details: 25° C., reading after 6 hours
Method: The experimental procedures intended to evaluate the corrosion-inhibitory efficiencies in carbon dioxide-saturated medium of the products used (A, B and C of Example 1) are described in this example. In order to simulate the corrosive medium, a solution of NACE type containing 50 g/l of NaCl and 0.25 mg/l of acetic acid, saturated by continuously bubbling CO2 through, depending on the case, and with inhibitor added or not added, is used.
The process is performed in a thermostatically regulated 600 ml Pyrex cell including, besides a gas inlet and outlet, three electrodes coupled to the cell by ground joints, namely a carbon-steel working electrode whose surface of contact with the corrosive solution is 1 cm^2, a saturated calomel reference electrode and a platinum counterelectrode having a very large surface of contact with the corrosive solution. 500 ml of the corrosive solution is placed in the cell, as control or with inhibitor added, after which the counterelectrode and the reference electrode are put in place. The solution is de-aerated by bubbling nitrogen through for one hour and is then saturated with CO2 by bubbling for at least one hour. In order to ensure good saturation with CO2, this gas is left to bubble through throughout the experiment.
The rate of corrosion Vcorr is measured by a method of measuring polarization resistance, which is known in the art. The corrosion rate reading is taken after stabilization for 6 hours.
The percentage of protection (%P) which allows the corrosion-inhibitory efficiency of the test product to be expressed is given by the relationship:
%P={(V^0corr−V^icorr)/V^0corr}×100
where V^0corr=rate of corrosion without inhibitor
V^icorr=rate of corrosion in the presence of a dose of inhibitor.
Table II collates the percentages of protection at room temperature (25° C.) as a function of the nature of the polymethylenepolyaminodipropionamides used and their dose.

[2] = tested on: Photobacterium phosphoreum; experiment: Microtox bacterial ecotoxicity test (AFNOR NF T90-320); assay type: cell-based; details: lethal concentration to destroy 50% of the population in 15 minutes
Method: (§1) The ecotoxicity measurements for various polymethylenepolyaminedipropionamides were carried out on a bacterium (Photobacterium phosphoreum) and on an alga (Skeletonema costatum) . The bacterial test is the Microtox test carried out according to AFNOR standard NF T90-320. The toxicities on Skeletonema costatum are determined according to the method ISO/DIS 10253. The Microtox toxicity is expressed as LC50 (lethal concentration in mg/l to destroy 50% of the population in 15 minutes). On Skeletonema costatum, the toxicity is expressed as EC50 (effective concentration in mg/l to inhibit the growth of 50% of the population in 72 hours).

Skeletonema costatum = experiment: Algal ecotoxicity test (ISO/DIS 10253); assay type: cell-based; details: concentration to inhibit the growth of 50% of the population in 72 hours
Method: as §1

Row | Structure (SMILES) | PERCENTAGE OF PROTECTION (%) ([1]; dose 10 ppm) | PERCENTAGE OF PROTECTION (%) ([1]; dose 20 ppm) | PERCENTAGE OF PROTECTION (%) ([1]; dose 50 ppm) | PERCENTAGE OF PROTECTION (%) ([1]; dose 100 ppm) | Toxicity Microtox (LC50) [2] [µg/mL] | Toxicity Skeletonema costatum (EC50) (Skeletonema costatum) [µg/mL]
1 | NC(=O)CCNCCNCCNCCNCCC(N)=O [Molecule B, H2NCO—(CH2)2—NH—[—(CH2)2 —NH—]3—CH2)2—CONH2] | 34 | 43 | 48 | 56 | 104 | 
2 | NC(=O)CCNCCCNCCNCCCNCCC(N)=O [Molecule C, H2NCO—(CH2)2—NH—(CH2)3—NH—(CH2)2—NH—(CH2)3—NH—(CH2)2—CONH2] | 63 | 70 | 73 | 82 | 127 | 5 to 10
3 | NC(=O)CCNCCNCCNCCC(N)=O [Molecule A, H2NCO—(CH2)2—NH—[—(CH2)2 —NH—]2—(CH2)2—CONH2 (RN 92009-86-4)] | 24 | 44 | 48 | 53 | 128 | 
